Test results as given in ChEMBL document CHEMBL2074042, “beta-lactam antibiotics as substrates for OCTN2, an organic cation/carnitine transporter” (J Biol Chem, 2000).

Target: T1, Organic cation/carnitine transporter 2 (Homo sapiens, UniProt O76082)
T1 sequence (O76082 whole entry): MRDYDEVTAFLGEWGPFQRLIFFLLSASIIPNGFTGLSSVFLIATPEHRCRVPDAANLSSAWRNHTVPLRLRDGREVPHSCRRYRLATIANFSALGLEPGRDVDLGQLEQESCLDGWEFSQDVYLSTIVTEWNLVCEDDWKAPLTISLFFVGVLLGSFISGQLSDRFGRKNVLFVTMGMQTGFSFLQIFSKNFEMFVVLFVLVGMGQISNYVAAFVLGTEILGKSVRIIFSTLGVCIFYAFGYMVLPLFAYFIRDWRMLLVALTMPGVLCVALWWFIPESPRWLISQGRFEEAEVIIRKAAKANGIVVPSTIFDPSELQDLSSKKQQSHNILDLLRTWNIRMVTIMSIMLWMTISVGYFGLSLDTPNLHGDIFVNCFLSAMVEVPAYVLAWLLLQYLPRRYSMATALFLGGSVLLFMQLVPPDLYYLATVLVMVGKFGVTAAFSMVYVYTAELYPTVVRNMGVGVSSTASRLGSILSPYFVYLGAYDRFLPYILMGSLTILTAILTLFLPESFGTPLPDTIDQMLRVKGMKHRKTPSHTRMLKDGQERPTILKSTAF
Assay: TP_TRANSPORTER: inhibition of Carnitine uptake (Carnitine: 0.02 uM, PCG: 2500 uM) in OCTN2-expressing HeLa cells
Format: functional, cell-based

- Activity: is not an inhibitor [-]
SMILES: CC1(C)S[C@@H]2[C@H](NC(=O)Cc3ccccc3)C(=O)N2[C@H]1C(=O)O [PENICILLIN G]
